Measured values published in patent US20210380535A1, “CO-CRYSTALS COMPRISING EPICATECHIN AND A CARBOXY-N-HETEROCYCLIC CO-CRYSTAL FORMER” (Epirium Bio Inc., priority 2018, published 2021).
Like-named read-outs stand apart in the source and are kept apart here.

Columns and labels:
[1] = Pharmacokinetics study of (+)/(−) epicatechin and their trigonelline (1:1) co-crystals, oral (Example 3); assay type: in vivo; settings: rat, 10 mg/kg, male SD rats, 10 mpk equivalent of parent drug, vehicle CMC and Tween 80, plasma; for half-life: read-out: T½ elimination (converted)
Protocol: (§1) Co-crystals of the present invention were administered orally (PO) at a dose of 10 mpk equivalent of parent drugs in male SD rats. The PK results of the compound were compared with exposure of parent drugs. […] Blood samples were centrifuged at 10,000 rpm for 5 min. at 4° C. to obtain the plasma, which were aspirated into separate labelled tubes and stored at −80° C. Extraction solvent was added to plasma, was vortexed and shaken on shaker for 10 minutes, centrifuged at 10,000 rpm for 10 minutes at 4° C. Supernatant was kept for analysis.

[2] = average; male SD rats, PO, 14 mpk of Compound 109 (equivalent to 10 mpk epicatechin), vehicle 0.5% CMC
Protocol: A pharmacokinetics study was carried out to evaluate the plasma exposure of D-proline co-crystals of (+) epicatechin (Compound 109). Co-crystals were administered orally (PO) at a dose of 14 mpk of Compound 109, which is equivalent to 10 mpk of epicatechin. The dosing vehicle that was used in this study was 0.5% CMC. After oral dosing, blood was collected by serial bleeding at different time points in heparinised tubes. Blood samples were centrifuged at 10,000 rpm for 5 min. at 4° C. to obtain the plasma, which were aspirated into separate labelled tubes and stored at −80° C. Extraction solvent was added to plasma, was vortexed and shaken on a shaker for 10 minutes, and then centrifuged at 10,000 rpm for 10 minutes at 4° C. Supernatant was kept for analysis. Acetonitrile and plasma calibration curves were generated and percentage of drug recovery from plasma determined. Quantitative analysis was done by liquid chromatography tandem mass spectrometer (API3000 LC-MS/MS). PK parameters were calculated using Graph Pad PRISM version 5.04 and the results are depicted in Table 7.

[3] = Pharmacokinetics study of (+) epicatechin (SPR590) and its trigonelline (1:1) co-crystal (SPR515), oral (Example 4); assay type: in vivo; settings: rat, plasma, male SD rats, CMC and Tween 80
Protocol: as §1, with “mpk” for “mpk equivalent of parent drugs”, “rats for the control (+) epicatechin group and 10 mpk of SPR 515 which is equivalent to 6.25 mpk of epicatechin.” for “rats.”

[4] = PO, dose 10 mpk (MW adjusted (+)-epicatechin dose: SPR590 10 mpk, SPR515 6.25 mpk)

SMILES | AUC [1] [µM·h] | Cmax [1] [nM] | Tmax [1] [min] | half-life [1] [min] | AUC [2] [µM·h] | Cmax [2] [nM] | Tmax [2] [min] | T½ elimination [2] [min] | AUC [3, 4] [µM·h] | Cmax [3, 4] [nM] | concentration at 0.16 h ([3]; time point 0.16 h, PO 10 mpk (SPR515: equivalent to 6.25 mpk epicatechin), read-out: Plasma level) [nM] | concentration at 0.5 h ([3]; time point 0.5 h, PO 10 mpk (SPR515: equivalent to 6.25 mpk epicatechin), read-out: Plasma level) [nM] | concentration at 1 h ([3]; time point 1 h, PO 10 mpk (SPR515: equivalent to 6.25 mpk epicatechin), read-out: Plasma level) [nM] | concentration at 2 h ([3]; time point 2 h, PO 10 mpk (SPR515: equivalent to 6.25 mpk epicatechin), read-out: Plasma level) [nM] | concentration at 4 h ([3]; time point 4 h, PO 10 mpk (SPR515: equivalent to 6.25 mpk epicatechin), read-out: Plasma level) [nM] | concentration at 8 h ([3]; time point 8 h, PO 10 mpk (SPR515: equivalent to 6.25 mpk epicatechin), read-out: Plasma level) [nM]
Oc1cc(O)c2c(c1)O[C@H](c1ccc(O)c(O)c1)[C@H](O)C2 [Compound 107, (−) epicatechin] | 0.678 | 386 | 18 | 113 |  |  |  |  |  |  |  |  |  |  |  | 
O=C(O)[C@H]1CCCN1.Oc1cc(O)c2c(c1)O[C@@H](c1ccc(O)c(O)c1)[C@@H](O)C2 [Compound 109, (+) Epicatechin_(D)-Proline (1:1) Co-Crystals] |  |  |  |  | 1.90533 | 778 | 45 | 103 |  |  |  |  |  |  |  | 
Oc1cc(O)c2c(c1)O[C@@H](c1ccc(O)c(O)c1)[C@@H](O)C2 [Compound 108, (+) epicatechin] | 0.579 | 333 | 60 | 49.8 |  |  |  |  | 0.678 | 386 | 236 | 338 | 262 | 152 | 24.1 | 0
